One assay concerns the target T1, 5-Lipoxygenase (Rattus norvegicus, UniProt P12527).
T1 construct: rat RBL-1 cells; endogenous in cells; host or cells: RBL-1 cells
The assay can be described thus: 5-Lipoxygenase enzyme assay. The class given is biochemical. As to conditions: 30.0 μM; average of duplicate; negative = stimulation.

In assay [1] the target is Ca++ Ch.-L, Benzothiazepine (Rattus norvegicus, UniProt P22002). Nature of the assay: Ca++ Ch.-L, Benzothiazepine radioligand binding. As to conditions: 10.0 μM; specific binding of [3H]Diltiazem; negative = stimulation. The protocol: The peptide was further screened in vitro in a variety of enzyme and biochemical assays. Methods employed were adapted from the scientific literature to maximize reliability and reproducibility.
(§1) Results presented in Table 10, “Results,” are the average of duplicate determinations, unless otherwise noted.
Radioligand binding assays were performed under conditions described in Table 8, “Experimental Conditions.” Radioligands employed in this study are given in Table 8, and commercial sources and catalog numbers of the radioligands are provided in Table 7, “Material Sources.” Unlabeled, blocking ligands employed this study are listed in Table 8, “Experimenal Conditions,” along with the commercial sources and catalog number of the unlabeled ligand. The concurrent reference compound (control) employed in each assay is listed in Table 9, “Reference Compound Data,” along with the commercial supplier and catalog number of the compound. Where receptors have been obtained through recombinant expression techniques, the species from which the cDNA was obtained, and the type of expression system employed (mammalian, insect, bacterial) is also given Table 7.
Maximum total binding and nonspecific binding were determined each time each assay was run. Nonspecific binding was defined as the proportion of total binding not displaced by unlabeled ligand specific for the receptor. […]

The subject of assay [2] is Adjuvant Induced Arthritis. The assay can be described thus: Adjuvant Induced Arthritis Model. The class given is in vivo. The settings on record: rat, 20 mg per KG body weight orally once per day for 14 days, Day 14. The protocol:
Adjuvant Induced Arthritis Model: Male Sprague-Dawley rats (160-180 g) were sensitized by injecting Fruend's Complete Adjuvant (0.5% suspension of killed mycobacterium tuberculosis (H37RA, Difco in mineral oil)). 0.05 ml was administered intradermally at a plantar site on the right hind leg of each rat. The test materials were given orally (by gavage) in 0.5% methylcelluose, at a dose level of 20 milligrams per kilo body weight, and given once per day for 14 days. The administration was started the day after sensitization. The left hind paw was measured just before sensitization and on Day 14, and the plantar edema inhibitory rate and the body weight gain rate were determined in comparison with the nonsensitized rat groups. The paw weights for each group in each test run were averaged. Activity was calculated as follows: [formula]
The Anti-inflammatory response is the difference in the mean foot volume. […] FIG. 4.

The next assay addresses T2, Interleukin-6 (Homo sapiens, UniProt P08887).
T2 construct: human U266; endogenous in cells; host or cells: U266 cells
Nature of the assay: Interleukin-6 radioligand binding. The settings on record: 10.0 μM; specific binding of [125I]Interleukin-6; negative = stimulation. The protocol:
The peptide was further screened in vitro in a variety of enzyme and biochemical assays. Methods employed were adapted from the scientific literature to maximize reliability and reproducibility. The primary literature reference for each assay is listed in Table 11 opposite the results for each assay.
as §1
Reference compounds were tested concurrently at 5 concentrations as an integral part of each assay to ensure the validity of the results obtained. […]
Maximum total binding and nonspecific binding were determined each time each assay was run. […]
Where inhibition constants (Ki) are presented, the Ki values were calculated using the equation of Cheng and Prusoff (Cheng, Y., Prusoff, W. H., Biochem. Pharmacol. […], 1973) using the observed IC50 of the tested compound, the concentration of radioligand employed in the assay, and the historical values for the Kd of the ligand (obtained experimentally). Where presented, the Hill Coefficient (nH), defining the scope of the competitive binding curve, was calculated using GraphPad Prism. […] Where IC50, Ki, and/or Hill Slope data is presented without Standard Error of the Mean (SEM), data are insufficient to be quantitative, and the values presented (Ki, IC50, nH) should be interpreted with caution. […]

Assay [3] relates to DNBS-induced distal colitis. The assay can be described thus: Inflammation, Inflammatory Bowel Disease (DNBS distal colitis). As to conditions: PO, Peptide 30 mg/kg × 7, Sulfasalazine 300 mg/kg × 7. The format is in vivo, rat. The protocol:
(§2) For in vivo assay, distilled water and saline was used as vehicle in oral and intraperitoneal administration, respectively. Dosing volume was 20 ml/kg for mice or 10 ml/kg for rats.
Groups of 3 Sprague-Dawley derived male rats weighing 150±20 gms and fasted for 24 hours were used. Distal colitis was induced by intra-colonic instillation of DNBS (2,4-dinitrobenzene sulfonic acid, 30 mg in 0.5 ml ethanol 30%) after which air (2 ml) was gently injected through the cannula to ensure that the solution remains in the colon. Test substance was administered PO (30 mg/kg) at 24 and 2 hours before DNBS instillation. Then, the animals received test compound every 24 hours for 5 consecutive days. The control group was given vehicle alone as compound dosing pattern. The animals were sacrificed 24 hours after the final dose of test compound administration and each colon was removed and weighed. Colon-to-body weight ratio was obtained from the percentage of the comparison between the animal colon weight and body weight on the 8th day. A 30 percent or more (±30%) reduction in colon-to-body weight ratio relative to the vehicle treated control group was considered significant.

Assay [4] deals with ovalbumin-induced bronchoconstriction. The assay can be described thus: Pulmonary, Histamine H3 (ovalbumin-induced bronchoconstriction). The format is in vivo, guinea pig. As to conditions: Peptide PO 10 mg/kg, R-α-methylhistamine IV 30 mg/kg. The protocol:
as §2
A group of Duncan Hartley derived male or female guinea pigs weighing 250±50 gms were anesthetized with pentobarbital sodium (50 mg/kg IP plus an additional 15 mg/kg IP if required) and succinylcholine chloride (2 mg/animal IP) was subsequently administered to prevent spontaneous respiration. Body temperature was maintained at 37° to 38° C. The trachea was cannulated and the guinea pig ventilated with a Harvard rodent respirator in a closed system. Tracheal pressure (TP) was recorded through a side-arm of the cannula connected to a P23ID Statham transducer. Respiratory rate set at 50 strokes/minute with a stroke volume (approximately 1 ml/100 g) sufficient to produce a baseline tracheal pressure of 6 cm H2O. Mean arterial pressure was monitored from a cannulated carotid artery, and heart rate was obtained from chest electrodes arranged for lead II. The jugular vein was cannulated for IV vehicle or drug administration in a volume of 1 ml/kg. Guinea pigs were sensitized with IP injections of ovalbumin 0.5 μg+Al(OH)3 1 mg (0.5 ml/animal) on days 1, and boosted with same dosage of ovalbumin and Al(OH)3 vaccine on day 8; and the animals were ready to be challenged between days 19 and 23 to get a submaximal ovalbumin (50 μg/kg IV)-induced bronchoconstriction, reflected as an increase in tracheal pressure (cm H2O). […]. Test substances were administered PO (10 mg/kg) at 60 minutes before ovalbumin (50 μg/kg IV) challenge in 3 guinea pigs. Tracheal pressure, blood pressure and heart rate were measured immediately before and after ovalbumin challenge.

Where “and” joins values, the source holds several entries; their conditions need not be identical. Identical values can stand only once.

Broadly, the % Inhibition is how much of the control response was suppressed. The low end stands for a weak effect, the high end for a strong effect.

T1 sequence (P12527 whole entry): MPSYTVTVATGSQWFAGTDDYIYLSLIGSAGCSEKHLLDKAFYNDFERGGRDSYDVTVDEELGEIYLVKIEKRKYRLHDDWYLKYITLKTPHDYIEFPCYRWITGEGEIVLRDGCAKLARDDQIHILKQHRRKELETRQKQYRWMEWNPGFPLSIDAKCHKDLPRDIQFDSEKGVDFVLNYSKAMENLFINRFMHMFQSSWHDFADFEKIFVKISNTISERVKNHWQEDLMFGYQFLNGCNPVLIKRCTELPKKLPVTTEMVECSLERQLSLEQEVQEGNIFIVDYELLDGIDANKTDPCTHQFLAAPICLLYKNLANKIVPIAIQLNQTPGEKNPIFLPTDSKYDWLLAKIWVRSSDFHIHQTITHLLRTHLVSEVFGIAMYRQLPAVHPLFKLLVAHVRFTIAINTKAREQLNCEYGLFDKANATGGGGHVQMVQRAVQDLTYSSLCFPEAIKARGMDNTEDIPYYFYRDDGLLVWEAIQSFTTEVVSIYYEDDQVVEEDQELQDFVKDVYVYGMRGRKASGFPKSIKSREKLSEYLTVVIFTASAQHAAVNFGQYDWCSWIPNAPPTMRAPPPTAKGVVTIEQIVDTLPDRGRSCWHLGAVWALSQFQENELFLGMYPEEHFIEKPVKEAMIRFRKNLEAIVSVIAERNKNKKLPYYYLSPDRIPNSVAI
Sequence of Ca++ Ch.-L, Benzothiazepine (P22002 whole entry): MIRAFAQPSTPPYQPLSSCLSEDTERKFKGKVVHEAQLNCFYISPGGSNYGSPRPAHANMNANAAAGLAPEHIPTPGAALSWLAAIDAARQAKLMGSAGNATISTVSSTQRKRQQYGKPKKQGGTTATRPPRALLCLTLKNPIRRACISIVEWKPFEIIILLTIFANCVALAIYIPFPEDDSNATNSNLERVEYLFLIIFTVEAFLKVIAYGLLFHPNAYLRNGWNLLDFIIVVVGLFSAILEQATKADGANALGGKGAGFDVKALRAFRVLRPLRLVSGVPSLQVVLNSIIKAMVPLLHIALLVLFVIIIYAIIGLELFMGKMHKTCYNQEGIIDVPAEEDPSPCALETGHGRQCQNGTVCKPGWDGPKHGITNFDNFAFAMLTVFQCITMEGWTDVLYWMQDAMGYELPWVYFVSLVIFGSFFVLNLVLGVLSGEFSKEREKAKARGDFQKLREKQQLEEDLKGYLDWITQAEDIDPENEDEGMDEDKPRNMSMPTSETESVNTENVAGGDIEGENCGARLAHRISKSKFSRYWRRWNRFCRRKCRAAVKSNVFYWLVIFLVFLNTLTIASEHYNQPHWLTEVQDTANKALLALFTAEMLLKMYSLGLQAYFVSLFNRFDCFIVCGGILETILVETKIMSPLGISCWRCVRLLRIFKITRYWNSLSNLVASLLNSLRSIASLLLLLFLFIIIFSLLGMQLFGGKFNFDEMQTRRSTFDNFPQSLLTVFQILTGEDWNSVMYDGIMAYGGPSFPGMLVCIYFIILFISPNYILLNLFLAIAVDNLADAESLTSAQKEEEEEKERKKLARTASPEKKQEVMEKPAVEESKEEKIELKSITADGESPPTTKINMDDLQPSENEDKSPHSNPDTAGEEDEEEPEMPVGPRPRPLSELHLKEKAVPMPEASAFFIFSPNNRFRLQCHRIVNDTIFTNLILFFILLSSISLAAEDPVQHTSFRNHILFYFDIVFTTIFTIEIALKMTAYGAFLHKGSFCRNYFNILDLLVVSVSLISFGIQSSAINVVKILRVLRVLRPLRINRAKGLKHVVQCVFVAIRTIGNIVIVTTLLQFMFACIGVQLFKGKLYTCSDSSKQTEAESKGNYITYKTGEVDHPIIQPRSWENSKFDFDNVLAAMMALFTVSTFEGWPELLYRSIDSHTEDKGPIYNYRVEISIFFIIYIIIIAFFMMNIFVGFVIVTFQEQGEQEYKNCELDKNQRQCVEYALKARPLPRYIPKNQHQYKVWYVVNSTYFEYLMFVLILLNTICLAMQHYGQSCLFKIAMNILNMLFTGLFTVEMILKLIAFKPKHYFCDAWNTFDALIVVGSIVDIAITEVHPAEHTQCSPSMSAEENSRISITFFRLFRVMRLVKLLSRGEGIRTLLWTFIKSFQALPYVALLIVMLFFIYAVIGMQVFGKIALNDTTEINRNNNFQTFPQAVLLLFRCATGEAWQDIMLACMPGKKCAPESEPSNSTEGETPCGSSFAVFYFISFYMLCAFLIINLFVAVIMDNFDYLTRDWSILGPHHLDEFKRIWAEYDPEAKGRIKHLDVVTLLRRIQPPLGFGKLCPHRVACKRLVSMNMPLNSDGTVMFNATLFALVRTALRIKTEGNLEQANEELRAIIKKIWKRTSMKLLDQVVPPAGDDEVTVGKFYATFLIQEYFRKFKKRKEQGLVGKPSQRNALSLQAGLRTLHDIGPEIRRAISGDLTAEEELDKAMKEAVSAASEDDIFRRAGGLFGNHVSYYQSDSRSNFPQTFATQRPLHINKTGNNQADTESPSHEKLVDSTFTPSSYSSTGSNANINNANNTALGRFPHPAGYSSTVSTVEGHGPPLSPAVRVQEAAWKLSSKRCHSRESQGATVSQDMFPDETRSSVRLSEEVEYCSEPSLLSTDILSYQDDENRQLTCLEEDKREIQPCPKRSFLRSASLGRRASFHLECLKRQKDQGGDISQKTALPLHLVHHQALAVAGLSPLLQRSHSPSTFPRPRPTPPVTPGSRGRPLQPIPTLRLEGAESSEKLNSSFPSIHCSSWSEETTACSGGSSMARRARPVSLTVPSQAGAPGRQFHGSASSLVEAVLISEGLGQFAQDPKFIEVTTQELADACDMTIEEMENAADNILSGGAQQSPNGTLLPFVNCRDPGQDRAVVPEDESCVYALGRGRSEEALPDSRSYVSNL
T2 sequence (P08887 20-468): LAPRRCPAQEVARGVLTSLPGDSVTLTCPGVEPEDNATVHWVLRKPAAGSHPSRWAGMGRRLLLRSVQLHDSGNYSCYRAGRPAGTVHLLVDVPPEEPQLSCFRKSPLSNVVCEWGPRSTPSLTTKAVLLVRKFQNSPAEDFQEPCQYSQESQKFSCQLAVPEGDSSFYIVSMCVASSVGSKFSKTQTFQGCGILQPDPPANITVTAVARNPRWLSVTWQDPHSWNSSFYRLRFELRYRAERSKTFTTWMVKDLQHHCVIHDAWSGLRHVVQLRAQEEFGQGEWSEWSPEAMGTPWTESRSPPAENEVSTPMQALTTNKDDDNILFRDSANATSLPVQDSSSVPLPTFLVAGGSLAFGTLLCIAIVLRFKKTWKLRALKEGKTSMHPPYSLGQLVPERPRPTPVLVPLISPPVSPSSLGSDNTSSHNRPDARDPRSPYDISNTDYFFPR
Procedure for 5-Lipoxygenase: Unless otherwise indicated, the peptide was tested in duplicate at the concentrations indicated for each assay.
Enzyme assays were performed under conditions described in Table 8, “Experimental Conditions.”.

As for LEU-PRO-PRO-SER-ARG [Peptide], the “% Inhibition” value on 5-Lipoxygenase came to 0%; in assay [1], 18%; at Interleukin-6 it was 13%. Also, the “anti-inflammatory response (percent inhibition)” value in assay [2] is 116.3%. Besides, the “Ratio Net” value in assay [3] (group mean minus blank-control) was 0.276%. For the same substance, the “Ratio Ind., X (group mean)” value in assay [3] (group mean) was 0.646%. The “Ratio Ind. (colon-to-body weight ratio)” value in assay [3] (individual rat, Colon (g)/8th B.W. × 100%) is 0.683% and 0.608%. For the same substance, the “% INH.” value in assay [3] (reduction in colon-to-body weight ratio relative to vehicle control) is recorded as 22%; in assay [4] (inhibition of induced bronchoconstriction relative to vehicle), −6.8%. The “Inc. of TP X ± SEM” value in assay [4] (group mean, N=3) worked out at 31.5 ± 2.3 cm H2O. Also, the “Inc. of TP Ind.” value in assay [4] (individual guinea pig, tracheal pressure after ovalbumin 50 μg/kg IV) is 27.5 cm H2O and 35.5 cm H2O and 31.5 cm H2O.

Source of the values: patent US6767890B1, “Peptides having anti-cancer and anti-inflammatory activity” (priority 1998, dated 2004).
